# Measurements from patent publication US20250197409A1, “BIFUNCTIONAL COMPOUND AND PHARMACEUTICAL COMPOSITION COMPRISING THE BIFUNCTIONAL COMPOUND, AND METHOD FOR TREATING ANDROGEN RECEPTOR RELATED DISEASE BY USING THE SAME” (ANHORN MEDICINES CO., LTD., priority 2022, published 2025).
# Read-outs that look alike come from different tables or passages of the source.
# Molecular target: T1, androgen receptor (Homo sapiens, UniProt P10275, T878A)
# T1 construct: host or cells: LNCaP.FGC
# Assay: Androgen receptor degradation assay using Western blot analysis
# Format: cell-based
# Protocol: Cells not treated with any of the above-mentioned compounds are used as a negative control.
# The internal loading control GAPDH was detected using a mouse monoclonal antibody (1:5000) (GTX627408, GeneTex International Corp., HsinChu City, Taiwan R.O.C.) and a goat anti-mouse HRP-conjugated secondary antibody (1:5000 dilution) (C04001, Croyez Bioscience Co., Ltd., Taipei City, Taiwan R.O.C.).
# AR remaining percentage was determined by the intensity difference of AR signals (each was normalized by the corresponding internal loading control GAPDH) between the protein samples from the untreated cells (100%) and those from the treated cells. “Cpd. #” indicates the compound number hereinabove.
# In addition, several compounds were selected to prepare a treatment stock solutions at 100 nM in RPMI medium. The treatment stock solutions were separately serially diluted (10×) with RPMI medium for treating LNCaP.FGC cells seeded with 2×10^5 cells per well in 24-well tissue culture plates. A calibration curve was determined by the serial diluted samples for each compound, and the concentration needed for 50% AR degradation (AR DC50) for each compound was calculated.
# [1] = 24 h, LNCaP.FGC cells, 100 nM, 24 hr, normalized to GAPDH, untreated cells = 100%; read-out: Androgen Receptor Remaining (%)
# [2] = LNCaP.FGC cells, serial 10x dilutions from 100 nM; read-out: AR DC50 (concentration needed for 50% AR degradation)
# [3] = 24 h, read-out: Androgen Receptor Remaining (%), LNCaP.FGC cells, 100 nM, 24 hr, normalized to GAPDH, untreated cells = 100%
# [4] = LNCaP.FGC cells, 100 nM, 24 hr, normalized to GAPDH, untreated cells = 100%
# T1 sequence (P10275 whole entry T878A): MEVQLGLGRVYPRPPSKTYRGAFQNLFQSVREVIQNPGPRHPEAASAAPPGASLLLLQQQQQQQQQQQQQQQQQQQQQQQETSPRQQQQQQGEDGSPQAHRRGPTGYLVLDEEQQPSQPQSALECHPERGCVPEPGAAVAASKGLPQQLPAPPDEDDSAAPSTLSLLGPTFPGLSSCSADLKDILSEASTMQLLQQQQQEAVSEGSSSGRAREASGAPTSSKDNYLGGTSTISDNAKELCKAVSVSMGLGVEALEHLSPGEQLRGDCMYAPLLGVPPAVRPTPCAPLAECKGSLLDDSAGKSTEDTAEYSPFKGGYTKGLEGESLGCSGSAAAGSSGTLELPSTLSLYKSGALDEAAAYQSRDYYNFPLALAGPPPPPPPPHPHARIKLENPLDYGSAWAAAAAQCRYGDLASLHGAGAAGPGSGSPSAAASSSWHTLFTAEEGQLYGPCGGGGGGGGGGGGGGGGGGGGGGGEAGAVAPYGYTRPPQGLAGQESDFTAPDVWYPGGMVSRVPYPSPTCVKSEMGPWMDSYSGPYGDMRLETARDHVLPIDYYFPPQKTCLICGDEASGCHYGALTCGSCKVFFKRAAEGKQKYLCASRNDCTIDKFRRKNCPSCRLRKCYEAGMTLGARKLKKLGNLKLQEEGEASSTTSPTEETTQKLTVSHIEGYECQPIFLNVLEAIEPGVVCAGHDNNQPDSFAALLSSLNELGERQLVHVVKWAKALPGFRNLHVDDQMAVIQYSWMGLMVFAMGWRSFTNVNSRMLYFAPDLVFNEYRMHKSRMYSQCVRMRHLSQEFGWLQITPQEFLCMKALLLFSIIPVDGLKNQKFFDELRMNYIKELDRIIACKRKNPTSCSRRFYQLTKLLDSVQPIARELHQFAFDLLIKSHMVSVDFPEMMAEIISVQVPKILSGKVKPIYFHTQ
# T1 sequence (Q96SW2 whole entry partner): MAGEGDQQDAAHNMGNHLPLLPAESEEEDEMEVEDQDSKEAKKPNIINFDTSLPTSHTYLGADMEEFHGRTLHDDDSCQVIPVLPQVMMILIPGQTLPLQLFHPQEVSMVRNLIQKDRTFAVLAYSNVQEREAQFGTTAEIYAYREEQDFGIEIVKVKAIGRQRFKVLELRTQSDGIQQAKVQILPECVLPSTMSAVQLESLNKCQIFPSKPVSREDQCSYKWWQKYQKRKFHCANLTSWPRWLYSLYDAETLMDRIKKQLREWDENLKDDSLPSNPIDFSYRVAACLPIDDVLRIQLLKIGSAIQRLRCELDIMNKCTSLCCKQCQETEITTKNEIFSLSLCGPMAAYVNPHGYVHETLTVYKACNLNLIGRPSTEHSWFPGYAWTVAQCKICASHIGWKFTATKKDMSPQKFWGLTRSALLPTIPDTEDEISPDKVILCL
remaining activity at 0.1 µM [1],SMILES,remaining activity at 0.1 µM [3],further results
47%,Cn1c2c(c3ccc(OCCN4CCN(c5ccc(C(=O)N[C@H]6C(C)(C)[C@H](Oc7ccc(C#N)c(Cl)c7)C6(C)C)cc5)CC4)cc31)C(=O)N(C1CCC(=O)NC1=O)C2=O (stereo partly shown) [Compound 1],,DC50 [2]: 10 to 25 nM
,CCn1c2c(c3ccc(OCCC4CCN(c5ccc(C(=O)N[C@H]6CC[C@H](Oc7ccc(C#N)c(Cl)c7)CC6)nn5)CC4)cc31)C(=O)N(C1CCC(=O)NC1=O)C2=O (stereo partly shown) [Compound 2],56%,
32%,Cn1c2c(c3ccc(OCCN4CCN(c5ccc(C(=O)N[C@H]6CC[C@H](Oc7ccc(C#N)c(Cl)c7)CC6)nn5)CC4)cc31)C(=O)N(C1CCC(=O)NC1=O)C2=O (stereo partly shown) [Compound 3],,DC50 [2]: 25 to 100 nM
,CCn1c2c(c3cc(OCCN4CCN(c5ccc(C(=O)N[C@H]6C(C)(C)[C@H](Oc7ccc(C#N)c(Cl)c7)C6(C)C)cc5)CC4)ccc31)C(=O)N(C1CCC(=O)NC1=O)C2=O (stereo partly shown) [Compound 4],66%,
,CCn1c2c(c3cc(OCCN4CCN(c5ccc(C(=O)N[C@H]6C(C)(C)[C@H](Oc7ccc(C#N)c(Cl)c7)C6(C)C)cn5)CC4)ccc31)C(=O)N(C1CCC(=O)NC1=O)C2=O (stereo partly shown) [Compound 5],51%,
31%,Cn1c2c(c3ccc(OCCN4CCN(c5ccc(C(=O)N[C@H]6C(C)(C)[C@H](Oc7ccc(C#N)c(Cl)c7)C6(C)C)cn5)CC4)cc31)C(=O)N(C1CCC(=O)NC1=O)C2=O (stereo partly shown) [Compound 6],,DC50 [2]: 25 to 100 nM
,CC1(C)[C@H](NC(=O)c2ccc(N3CCN(CCOc4ccc5c6c(sc5c4)C(=O)N(C4CCC(=O)NC4=O)C6=O)CC3)cn2)C(C)(C)[C@H]1Oc1ccc(C#N)c(Cl)c1 (stereo partly shown) [Compound 7],,Androgen Receptor Remaining (%) [4]: 45%; DC50 [2]: 25 to 100 nM
22%,Cn1c2c(c3ccc(OCCCN4CCN(c5ccc(C(=O)N[C@H]6C(C)(C)[C@H](Oc7ccc(C#N)c(Cl)c7)C6(C)C)cn5)CC4)cc31)C(=O)N(C1CCC(=O)NC1=O)C2=O (stereo partly shown) [Compound 8],,DC50 [2]: 10 to 25 nM
73%,Cn1c2c(c3ccc(OCCN4CCN(c5ccc(C(=O)N[C@H]6C(C)(C)[C@H](Oc7ccc(C#N)c(Cl)c7)C6(C)C)nc5)CC4)cc31)C(=O)N(C1CCC(=O)NC1=O)C2=O (stereo partly shown) [Compound 9],,DC50 [2]: > 100 nM
37%,Cn1c2c(c3cc(OCCN4CCN(c5ccc(C(=O)N[C@H]6C(C)(C)[C@H](Oc7ccc(C#N)c(Cl)c7)C6(C)C)nc5)CC4)ccc31)C(=O)N(C1CCC(=O)NC1=O)C2=O (stereo partly shown) [Compound 10],,DC50 [2]: 25 to 100 nM
73%,Cn1c2c(c3ccc(OCCCN4CCN(c5ccc(C(=O)N[C@H]6C(C)(C)[C@H](Oc7ccc(C#N)c(Cl)c7)C6(C)C)nc5)CC4)cc31)C(=O)N(C1CCC(=O)NC1=O)C2=O (stereo partly shown) [Compound 11],,
42%,Cn1c2c(c3ccc(OCCCN4CCN(c5ccc(C(=O)N[C@H]6C(C)(C)[C@H](Oc7ccc(C#N)c(Cl)c7)C6(C)C)cc5)CC4)cc31)C(=O)N(C1CCC(=O)NC1=O)C2=O (stereo partly shown) [Compound 12],,DC50 [2]: 25 to 100 nM
,CC(C)n1c2c(c3cc(OCCN4CCN(c5ccc(C(=O)N[C@H]6C(C)(C)[C@H](Oc7ccc(C#N)c(Cl)c7)C6(C)C)nc5)CC4)ccc31)C(=O)N(C1CCC(=O)NC1=O)C2=O (stereo partly shown) [Compound 13],155%,
70%,CC1(C)[C@H](NC(=O)c2ccc(N3CCN(CCCOc4ccc5c6c(sc5c4)C(=O)N(C4CCC(=O)NC4=O)C6=O)CC3)cn2)C(C)(C)[C@H]1Oc1ccc(C#N)c(Cl)c1 (stereo partly shown) [Compound 14],,
106%,Cn1c2c(c3cc(OCCN4CCN(c5ccc(C(=O)N[C@H]6C(C)(C)[C@H](Oc7ccc(C#N)c(Cl)c7)C6(C)C)cc5)CC4)ccc31)C(=O)N(C1CCC(=O)NC1=O)C2=O (stereo partly shown) [Compound 15],,
,CC(C)n1c2c(c3cc(OCCN4CCN(c5ccc(C(=O)N[C@H]6C(C)(C)[C@H](Oc7ccc(C#N)c(Cl)c7)C6(C)C)cn5)CC4)ccc31)C(=O)N(C1CCC(=O)NC1=O)C2=O (stereo partly shown) [Compound 16],96%,

remaining activity at 0.1 µM [1],SMILES,remaining activity at 0.1 µM [3],further results
,CC(C)n1c2c(c3cc(OCCN4CCN(c5ccc(C(=O)N[C@H]6C(C)(C)[C@H](Oc7ccc(C#N)c(Cl)c7)C6(C)C)cc5)CC4)ccc31)C(=O)N(C1CCC(=O)NC1=O)C2=O (stereo partly shown) [Compound 17],127%,
,CC1(C)[C@H](NC(=O)c2ccc(N3CCN(CCOc4ccc5c6c(sc5c4)C(=O)N(C4CCC(=O)NC4=O)C6=O)CC3)cn2)C(C)(C)[C@H]1Oc1ccc(C#N)c(Cl)c1 (stereo partly shown) [Compound 18],,Androgen Receptor Remaining (%) [4]: 99%
73%,Cn1c2c(c3cc(OCCN4CCN(c5ccc(C(=O)N[C@H]6C(C)(C)[C@H](Oc7ccc(C#N)c(Cl)c7)C6(C)C)cn5)CC4)ccc31)C(=O)N(C1CCC(=O)NC1=O)C2=O (stereo partly shown) [Compound 19],,
,CCn1c2c(c3ccc(OCCCN4CCN(c5ccc(C(=O)N[C@H]6C(C)(C)[C@H](Oc7ccc(C#N)c(Cl)c7)C6(C)C)cn5)CC4)cc31)C(=O)N(C1CCC(=O)NC1=O)C2=O (stereo partly shown) [Compound 20],63%,
,CCn1c2c(c3ccc(OCCCN4CCN(c5ccc(C(=O)N[C@H]6C(C)(C)[C@H](Oc7ccc(C#N)c(Cl)c7)C6(C)C)cc5)CC4)cc31)C(=O)N(C1CCC(=O)NC1=O)C2=O (stereo partly shown) [Compound 21],92%,
,CCCn1c2c(c3ccc(OCCCN4CCN(c5ccc(C(=O)N[C@H]6C(C)(C)[C@H](Oc7ccc(C#N)c(Cl)c7)C6(C)C)cn5)CC4)cc31)C(=O)N(C1CCC(=O)NC1=O)C2=O (stereo partly shown) [Compound 22],89%,
,CCCn1c2c(c3ccc(OCCCN4CCN(c5ccc(C(=O)N[C@H]6C(C)(C)[C@H](Oc7ccc(C#N)c(Cl)c7)C6(C)C)cc5)CC4)cc31)C(=O)N(C1CCC(=O)NC1=O)C2=O (stereo partly shown) [Compound 23],88%,
62%,Cn1c2c(c3cccc(OCCCN4CCN(c5ccc(C(=O)N[C@H]6C(C)(C)[C@H](Oc7ccc(C#N)c(Cl)c7)C6(C)C)cn5)CC4)c31)C(=O)N(C1CCC(=O)NC1=O)C2=O (stereo partly shown) [Compound 24],,
80%,Cn1c2c(c3cccc(OCCCN4CCN(c5ccc(C(=O)N[C@H]6C(C)(C)[C@H](Oc7ccc(C#N)c(Cl)c7)C6(C)C)cc5)CC4)c31)C(=O)N(C1CCC(=O)NC1=O)C2=O (stereo partly shown) [Compound 25],,
,CCn1c2c(c3ccc(OCCCN4CCN(c5ccc(C(=O)N[C@H]6CC[C@H](Oc7ccc(C#N)c(Cl)c7)CC6)cn5)CC4)cc31)C(=O)N(C1CCC(=O)NC1=O)C2=O (stereo partly shown) [Compound 26],75%,
,CCn1c2c(c3ccc(OCCCN4CCN(c5ccc(C(=O)N[C@H]6CC[C@H](Oc7ccc(C#N)c(Cl)c7)CC6)cc5)CC4)cc31)C(=O)N(C1CCC(=O)NC1=O)C2=O (stereo partly shown) [Compound 27],107%,
,Cn1c2c(c3ccc(OC4CCN(CC5CCN(c6ncc(C(=O)N[C@H]7CC[C@H](Oc8ccc(C#N)c(Cl)c8)CC7)cn6)CC5)CC4)cc31)C(=O)N(C1CCC(=O)NC1=O)C2=O (stereo partly shown) [Compound 28],,DC50 [2]: 25 to 100 nM
,CCn1c2c(c3ccc(OCCN4CCN(c5ccc(C(=O)N[C@H]6C(C)(C)[C@H](Oc7ccc(C#N)c(Cl)c7)C6(C)C)cc5)CC4)cc31)C(=O)N(C1CCC(=O)NC1=O)C2=O (stereo partly shown) [Compound 30],56%,
,CCn1c2c(c3ccc(OCCN4CCN(c5ccc(C(=O)N[C@H]6CC[C@H](Oc7ccc(C#N)c(Cl)c7)CC6)cn5)CC4)cc31)C(=O)N(C1CCC(=O)NC1=O)C2=O (stereo partly shown) [Compound 31],47%,"DC50 (read-out: AR DC50 (concentration needed for 50% AR degradation); LNCaP.FGC cells, serial 10x dilutions from 100 nM): 25 to 100 nM"
,CCn1c2c(c3ccc(OCCN4CCN(c5ccc(C(=O)N[C@H]6CC[C@H](Oc7ccc(C#N)c(Cl)c7)CC6)cc5)CC4)cc31)C(=O)N(C1CCC(=O)NC1=O)C2=O (stereo partly shown) [Compound 32],59%,
